Consider 7 compounds from publication PMC9106665 (Communications Biology, 2022).

Substitutions are numbered along the chain they refer to. ≈ marks a conversion by molar mass, not a printed value. Read-outs that look alike come from different tables or passages of the source. Some results are limits rather than exact numbers.

Data set [1] concerns the target T1, DfrA5 (Escherichia coli, UniProt P11731). Nature of the data set: biochemical. On the set-up: species or system E. coli. How it is done: (§1) The assay was performed at room temperature using the Shimadzu UV/visible spectrophotometer. A standard reaction buffer contained 20 mM TES, pH 7.0, 50 mM KCl, 10 mM β-mercapthoethanol, 0.5 mM EDTA, and 1 mg/ml BSA. […] All measurements were performed in triplicate, from at least two independent experiments.

A further data set has as its target T2, EcDHFR (Escherichia coli, UniProt P0ABQ4).
T2 construct: E. coli DHFR gene (UniProtKB:P0ABQ4) and dfrA1 gene (UniProtKB:A4GRC7) were synthesized and cloned in pET-41a (+) vector; made in house; host or cells: E. coli BL21(DE3)
It is filed as binding. The procedure: (§2) In all, 200 µg of purified enzyme was preincubated for 18 h without and with a 10× molar excess of the ligand(s) (NADPH, TMP or PLA) in 20 mM Hepes 7.5, 100 mM KCl, 5% glycerol, ±2.0% DMSO and 2 mM DTT buffer. […] Changes in intrinsic fluorescence intensity (measured ratio of absorbance at 350 nm over 330 nm) from tryptophan residues were used to calculate derivatives using the evaluation features provided by the Tycho instrument.

Data set [2] deals with T1, DfrA5. Format: binding, E. coli. On the set-up: E. coli dfrA5 gene (UniProtKB:A0A4Y6L037) was synthesized and cloned in pET-24a (+) vector with the same restriction sites; 6xHis tag (C); made in house; host or cells: E. coli BL21(DE3). The procedure:
In all, 200 µg of purified enzyme was preincubated for 18 h without and with a 10× molar excess of the ligand(s) (NADPH, TMP or PLA) in 20 mM Hepes 7.5, 100 mM KCl, 5% glycerol, ±2.0% DMSO and 2 mM DTT buffer. […] Changes in intrinsic fluorescence intensity (measured ratio of absorbance at 350 nm over 330 nm) from tryptophan residues were used to calculate derivatives using the evaluation features provided by the Tycho instrument. The inflection temperature (Ti) as a marker of protein structural integrity was determined by the first derivative of the signal (ratio of 350 nm/330 nm).

Another data set has as its target T3, E. coli DHFR (EcDHFR) (Escherichia coli, UniProt P0ABQ4).
T3 construct: E. coli DHFR gene (UniProtKB:P0ABQ4) and dfrA1 gene (UniProtKB:A4GRC7) were synthesized and cloned in pET-41a (+) vector; made in house; host or cells: E. coli BL21(DE3)
The experiment in a line: biochemical. The procedure:
as §1

Data set [3] relates to E. coli JW0451 acrB mutant strain. Nature of the data set: microbe, parasite or virus in culture. Format: cell-based. Conditions: for MIC: w/o SMX, 80% inhibition of growth, 18 to 20 hours, 37°C. The procedure: (§3) Preparation, handling of cultures and the antibiotic susceptibility testing was performed according to CLSI guidelines. […] The compounds at the highest concentrations alone and paired with Sulfamethoxazole (1:19 w/w ratio) were then added to the first well before being serially diluted (2-fold) throughout the plate, leaving the last well with broth only (negative growth control). Next, 50 μl of the inoculum was added to each well.

The next data set relates to E. coli BW25113. The experiment in a line: microbe, parasite or virus in culture. Format: cell-based. To be noted: for MIC: Escherichia coli, 80% inhibition of growth. The procedure: as §3
A further data set has as its target T4, DfrA1 (Escherichia coli, UniProt P00382).
T4 construct: dfrA1 gene (UniProtKB:A4GRC7) were synthesized and cloned in pET-41a (+) vector; made in house; host or cells: E. coli BL21(DE3)
T4 sequence (P00382 1-157): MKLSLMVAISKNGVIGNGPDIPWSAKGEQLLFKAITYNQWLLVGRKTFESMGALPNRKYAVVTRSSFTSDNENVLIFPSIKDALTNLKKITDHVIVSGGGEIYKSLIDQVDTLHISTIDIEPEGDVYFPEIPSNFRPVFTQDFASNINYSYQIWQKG
Format: binding, E. coli. The procedure:
as §2

The target in data set [4] is T5, EcDHFR L28Q (Escherichia coli, UniProt P0ABQ4, L28Q).
T5 construct: using E. coli DHFR template previously synthesized by GeneScript; made in house; host or cells: E. coli BL21(DE3)
T5 sequence (P0ABQ4 1-159 L28Q): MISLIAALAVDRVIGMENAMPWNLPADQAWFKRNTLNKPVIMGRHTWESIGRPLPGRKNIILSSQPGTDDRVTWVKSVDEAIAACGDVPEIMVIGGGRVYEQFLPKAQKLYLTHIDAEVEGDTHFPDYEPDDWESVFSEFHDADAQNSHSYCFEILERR
The experiment in a line: Enzyme inhibition assay (NADPH oxidation, 340 nm). It is filed as biochemical. How it is done:
as §1

Data set [5] concerns the target T6, EcDHFR D27E/L28Q (Escherichia coli, UniProt P0ABQ4, D27E/L28Q).
T6 construct: using E. coli DHFR template previously synthesized by GeneScript; made in house; host or cells: E. coli BL21(DE3)
T6 sequence (P0ABQ4 1-159 D27E/L28Q): T5 sequence (P0ABQ4 1-159 L28Q) with D27E
Nature of the data set: Enzyme inhibition assay (NADPH oxidation, 340 nm). Format: biochemical. The procedure:
as §1

In data set [6] the target is T7, EcDHFR D27E (Escherichia coli, UniProt P0ABQ4, D27E).
T7 construct: using E. coli DHFR template previously synthesized by GeneScript; made in house; host or cells: E. coli BL21(DE3)
T7 sequence (P0ABQ4 1-159 D27E): T5 sequence (P0ABQ4 1-159 L28Q) with D27E, Q28L
Nature of the data set: Enzyme inhibition assay (NADPH oxidation, 340 nm). It is filed as biochemical. How it is done: as §1

Data set [7] deals with E. coli BL21(DE3) strain overexpressing EcDHFR wt. The experiment in a line: Antibacterial activity (MIC). It is filed as cell-based. To be noted: Escherichia coli.
The next data set relates to DfrA1 and DfrA5. Format: biochemical, E. coli. To be noted: range over DfrA1 and DfrA5. The procedure: as §1
The subject of data set [8] is E. coli BL21(DE3) strain overexpressing DfrA1. The experiment in a line: Antibacterial activity (MIC). It is filed as cell-based. To be noted: Escherichia coli.
Data set [9] relates to E. coli BL21(DE3) strain overexpressing DfrA5. The experiment in a line: Antibacterial activity (MIC). It is filed as cell-based. To be noted: Escherichia coli.
For data set [10], the system named is NC(=O)C1=CN([C@H]2O[C@H](COP(=O)(O)OP(=O)(O)OC[C@H]3O[C@@H](n4cnc5c(N)ncnc54)[C@H](OP(=O)(O)O)[C@@H]3O)[C@@H](O)[C@H]2O)C=CC1. Nature of the data set: purified protein, by the assay type. It is filed as biochemical, E. coli. To be noted: other: varied substrate 1 to 200 µM, 25 °C. The text has this:
(§4) using a nonlinear regression method in GraphPad Prism 9.2.0 software. To determine the turnover number (kcat) using the same model, the enzyme concentration (based on the protein concentration determined by Bradford assay) was constrained to a constant value and analyzed by the following equation (Eq. 3):3 Y=Et×kcat×X/(Km+X)

Data set [11] deals with Nc1nc2c(c(=O)[nH]1)N=C(CNc1ccc(C(=O)N[C@@H](CCC(=O)O)C(=O)O)cc1)CN2. Nature of the data set: purified protein, by the assay type. It is filed as biochemical, E. coli. Conditions: other: varied substrate 1 to 200 µM, 25 °C.
From the text: as §4

The target in data set [12] is T5, EcDHFR L28Q. Nature of the data set: Steady-state kinetic measurements. Format: biochemical. Conditions: varied substrate 1 to 200 µM, 25 °C.
From the text: as §4

Data set [13] addresses T6, EcDHFR D27E/L28Q. The experiment in a line: Steady-state kinetic measurements. Conditions: varied substrate 1 to 200 µM, 25 °C. It is filed as biochemical.
From the text: as §4

In data set [14] the target is T7, EcDHFR D27E. The experiment in a line: Steady-state kinetic measurements. It is filed as biochemical. To be noted: varied substrate 1 to 200 µM, 25 °C.
From the text: as §4

Data set [15] has as its system NC(=O)C1=CN([C@H]2O[C@H](COP(=O)(O)OP(=O)(O)OC[C@H]3O[C@@H](n4cnc5c(N)ncnc54)[C@H](OP(=O)(O)O)[C@@H]3O)[C@@H](O)[C@H]2O)C=CC1. Nature of the data set: Steady-state kinetic measurements. Format: biochemical, Escherichia coli. To be noted: other: varied substrate 1 to 200 µM, 25 °C.
[16] abbreviates: binary complex, 10× molar excess of ligand.

In general, Ki refers to a measure of affinity in units of concentration, obtained from inhibition or displacement. Low values mean a stronger hold on the target, high ones a looser hold on the target. As to `CN(Cc1cnc2nc(N)nc(N)c2n1)c1ccc(C(=O)N[C@@H](CCC(=O)O)C(=O)O)cc1` [Methotrexate, reference compound], the Ki at DfrA5 [1] turned out to be 579 ± 73.8 nM.

With `CCc1nc(N)nc(N)c1C#CC(C)c1cc2c(c(-c3ccc(CN)cc3)c1)OCO2` (centres unmarked) [UCP1223], the “Ti 1” value came out at 68.5 ± 1.4 °C on EcDHFR (setting [16]) and 78.9 ± 2.4 °C at EcDHFR (ternary complex, +NADPH). Besides, the “Ti 2” value at EcDHFR (setting [16]) stood at 80.8 ± 0.2 °C; at EcDHFR (ternary complex, +NADPH), 88.3 ± 0.5 °C. The “Δ1 (Ti shift vs apo)” value turned out to be 18.9 °C on EcDHFR (setting [16]) and 29.3 °C on EcDHFR (ternary complex, +NADPH). The “Δ2 (Ti shift vs apo)” value on EcDHFR (setting [16]) was 20.6 °C. For the same compound, the Ti at DfrA5 [2] (setting [16]) was 67.3 ± 1.0 °C; at DfrA5 [2] (ternary complex, +NADPH) it was 88.5 ± 0.2 °C; at DfrA1 (setting [16]) it was 58.5 ± 0.1 °C; at DfrA1 (ternary complex, +NADPH) it was 71.2 ± 3.1 °C. The “Δ (Ti shift vs apo)” value was 1.0 °C on DfrA5 [2] (setting [16]) and 8.7 °C on DfrA1 (setting [16]). Moreover, the Ki is 1.58 ± 0.26 nM at E. coli DHFR (EcDHFR); 16.8 ± 0.29 nM at DfrA5 [1]; 7.37 ± 0.72 nM on EcDHFR L28Q [4]; 187 ± 5.5 nM at EcDHFR D27E/L28Q [5]; 12.8 ± 0.56 nM at EcDHFR D27E [6]. Besides, the “Fold difference in MIC” value (in data set [3] (BW25113 w/o SMX vs JW0451 w/o SMX); in the data set on E. coli BW25113 (BW25113 w/o SMX vs w/ SMX)) was 32 throughout. The MIC was 0.625 µg/mL (≈ 1.5 µM) in data set [3] (Escherichia coli); 1.25 µg/mL (≈ 3.01 µM) in [3]; 0.625 µg/mL (≈ 1.5 µM) in the data set on E. coli BW25113 (BW25113, w/ SMX (1:19)); 20 µg/mL (≈ 48.1 µM) against E. coli BW25113 (BW25113, w/o SMX, 18 to 20 hours, 37°C); 1.25 µg/mL (≈ 3.01 µM) in data set [7] (w/ SMX (1:19)); 20 µg/mL (≈ 48.1 µM) in data set [7] (w/o SMX). In addition, the MIC in data set [8] (w/ SMX (1:19)) was 20 µg/mL (≈ 48.1 µM); in data set [8] (w/o SMX), above 20 µg/mL; in data set [9] (w/ SMX (1:19)), 10 µg/mL (≈ 24.1 µM); in data set [9] (w/o SMX), above 20 µg/mL. In addition, the “fold loss in affinities relative to EcDHFR” value on EcDHFR D27E/L28Q [5] (combinatorial mutant D27E/L28Q) is reported as 118 fold. Moreover, on EcDHFR D27E [6] (D27E substitution), the “fold increase in Ki over EcDHFR” value was 8 fold. In the data set on DfrA1 and DfrA5, the “fold loss of activity against DfrA1 and DfrA5 compared to EcDHFR” value is on record as 10–14 fold.

What is called Km is the concentration of substrate that gives half-maximal velocity. As a reminder, the kcat is the maximal rate divided by the concentration of active sites. What is called kcat/Km is the turnover number divided by the Michaelis constant. In the case of DfrA5 (Escherichia coli), in data set [10], the Km is on record as 19.9 ± 6.1 µM, the kcat amounted to 34.3 ± 3.3 s⁻¹ and the kcat/Km worked out at 1.7e+06 ± 500000 M⁻¹ s⁻¹. In addition, in data set [11], the Km was determined as 24.2 ± 6.6 µM, the kcat was determined as 31.4 ± 3.2 s⁻¹ and the kcat/Km worked out at 1.3e+06 ± 400000 M⁻¹ s⁻¹.

On to `Nc1nc2c(c(=O)[nH]1)N=C(CNc1ccc(C(=O)N[C@@H](CCC(=O)O)C(=O)O)cc1)CN2` [DHF, dihydrofolate], for which the Km on EcDHFR L28Q [12] worked out at 5.2 ± 1 µM; on EcDHFR D27E/L28Q [13] it was 56.6 ± 8 µM; on EcDHFR D27E [14], 15.4 ± 2.1 µM.

`COc1cc(Cc2cnc(N)nc2N)c2c(c1OC)OC(C1CC1)C=C2` (centres unmarked) [Iclaprim, reference compound] showed a Ki at DfrA5 [1] of 99 ± 13.9 nM.

In the case of EcDHFR (Escherichia coli K-12), in [15], the Km was 5.8 ± 0.8 µM and the kcat/Km is 600000 ± 70000 M⁻¹ s⁻¹.

Consider `COc1cc(Cc2cnc(N)nc2N)cc(OC)c1OC` [Trimethoprim, reference compound], for which the MIC in data set [3] (Escherichia coli) was 0.04 µg/mL (≈ 0.138 µM); in data set [7] (w/ SMX (1:19)), 0.078 µg/mL (≈ 0.269 µM); in data set [7] (w/o SMX) it was 0.625 µg/mL (≈ 2.15 µM); in [8] (w/ SMX (1:19)), above 20 µg/mL; in data set [8] (w/o SMX), above 20 µg/mL; in [9] (w/ SMX (1:19)), above 20 µg/mL. In [9] (w/o SMX), the MIC is above 20 µg/mL.
